Results as given in ChEMBL document CHEMBL1201862, “PubChem BioAssay data set” (2004).
Activity calls are given as the source filed them.

Columns and labels:
[1] = HepG2 cell cytotoxicity, dose response, cytotoxicity control, cherry-picked samples (AID 1159577); assay type: functional, cell-based
[2] = non-specific cell cytotoxicity, dose response, cytotoxicity control for PAX8 inhibitor project, plate reader, dry powder samples (AID 743021); assay type: functional, cell-based
[3] = cytotoxicity in OVCAR8 ovarian cancer cells, dose response, PAX8 project, cell-based, plate reader, dry powder samples (AID 743197); assay type: functional; conditions: OVCAR-8
Paired box protein Pax-8 = Paired box protein Pax-8 (Homo sapiens, UniProt Q06710); assay: inhibitors of PAX8-driven TPO luciferase reporter, dose response, RMG-I cells, cherry-pick (AID 687027); assay type: functional, cell-based;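 further: luciferase reporter driven by Pax8 target thyroperoxidase promoter measured by SteadyGlo luminescence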
[4] = P. falciparum Dd2 growth inhibitors, dose response, SYBR Green, cherry-picked samples (AID 1159567); assay type: functional, cell-based
[5] = inhibitors of PGC1a acetylation in cells, dose response, cell-based, cherry-picked samples (AID 720514); assay type: functional;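 further: potency may reflect raised or lowered acetylation signal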
[6] = IGROV1 ovarian cancer cell cytotoxicity, dose response, PAX8 inhibitor project, plate reader, dry powder samples (AID 743043); assay type: functional, cell-based; conditions: IGROV-1
cells [7] = assay: cells
[8] = target: Peroxisome proliferator-activated receptor gamma/Nuclear receptor coactivator 3 (Homo sapiens, UniProt P37231); assay: (§1) TR-FRET dose response biochemical High Throughput Screening assay for agonists of the steroid receptor coactivator 3 (SRC-3) recruitment by the peroxisome proliferator-activated receptor gamma (PPAR gamma): non-selective agonists. [Related pubchem assays: 1301 (Confirmation screen.), 1048 (Primary screen.)]; assay type: functional
Major prion protein = Major prion protein (Homo sapiens, UniProt P04156); assay type: functional, cell-based
[9] = target: Peroxisome proliferator-activated receptor gamma/Nuclear receptor coactivator 1 (Homo sapiens, UniProt P37231); assay: as §1, with “1 (SRC-1)” for “3 (SRC-3)”, “assays (depositor defined):AID1300, AID1808, AID504735, AID631]” for “assays: 1301 (Confirmation screen.), 1048 (Primary screen.)]”; assay type: protein assay
[10] = target: Peroxisome proliferator-activated receptor gamma/Nuclear receptor coactivator 2 (Homo sapiens, UniProt P37231); assay: TR-FRET dose response biochemical High Throughput Screening assay for agonists of the steroid receptor coactivator 2 (SRC-2) recruitment by the peroxisome proliferator-activated receptor gamma (PPAR gamma): non-selective agonists. [Related pubchem assays: 1297, 1032 ]; assay type: functional
cells [11] = assay type: functional, cell-based; conditions: HEK-CNG
HEK293 [12] = assay: NOD1 signaling inhibitors, primary screen, cell-based, luminescence, uHTS (AID 1578); assay type: functional; conditions: Homo sapiens
Galanin receptor type 3 = Galanin receptor type 3 (Homo sapiens, UniProt O60755); assay: Fluorescence-based cell-based primary high throughput dose response assay to identify antagonists of the Galanin Receptor 3 (GalR3).; assay type: functional
HEK293 [13] = assay: cells; assay type: functional, cell-based; conditions: Homo sapiens
HEK293 [14] = assay: cells; assay type: functional, cell-based; conditions: Homo sapiens; remark: listed apart in the source
HEK293 [15] = assay: NOD2 signaling inhibitors in MDP-stimulated cells, cell-based, uHTS, luminescence (AID 2001); assay type: functional; conditions: Homo sapiens
cells [16] = assay type: functional, cell-based
[17] = HepG2 cell cytotoxicity, dose response, cytotoxicity control, plate reader, cherry-pick, antagonist series (AID 743416); assay type: functional, cell-based
[18] = LGR2 antagonists, dose response, cell-based, HEK293, CRE-luciferase reporter, cherry pick, set 2 (AID 743343); assay type: functional;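 further: transfected cells were stimulated with diluted bursicon conditioned medium after compound addition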
[19] = A549 cell cytotoxicity, dose response, cytotoxicity control, plate reader, cherry-pick, antagonist series (AID 743412); assay type: functional, cell-based
[20] = target: T1, Nuclear receptor subfamily 0 group B member 1 (Homo sapiens, UniProt P51843); assay type: functional, cell-based;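 further: HEK293T cells transfected with SF-1 and DAX-1 plus StAR promoter luciferase reporter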
T1 sequence (P51843 whole entry): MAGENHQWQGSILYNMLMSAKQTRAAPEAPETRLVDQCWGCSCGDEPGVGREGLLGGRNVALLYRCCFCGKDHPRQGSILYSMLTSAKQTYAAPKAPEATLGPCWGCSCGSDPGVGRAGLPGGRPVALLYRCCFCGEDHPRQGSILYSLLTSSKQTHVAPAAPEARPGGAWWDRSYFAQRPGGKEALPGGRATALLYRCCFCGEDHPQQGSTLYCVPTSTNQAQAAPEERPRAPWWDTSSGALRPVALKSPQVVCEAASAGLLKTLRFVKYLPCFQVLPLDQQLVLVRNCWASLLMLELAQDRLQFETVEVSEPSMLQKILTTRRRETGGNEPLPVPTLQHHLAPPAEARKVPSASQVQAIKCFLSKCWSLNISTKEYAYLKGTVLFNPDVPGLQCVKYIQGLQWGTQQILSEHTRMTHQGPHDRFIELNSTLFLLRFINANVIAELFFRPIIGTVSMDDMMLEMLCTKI

[21] = MC4R antagonists, dose response, counter-screen for LGR2 antagonist project, cell-based, plate reader, cherry pick (AID 743444); assay type: functional;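 further: transfected HEK 293 cells stimulated with alpha-MSH peptide; potency of inhibitors of the alpha-MSH evoked signal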
[22] = HEK293 cell cytotoxicity, dose response, cytotoxicity control, plate reader, cherry-picked samples (AID 743446); assay type: functional, cell-based
[23] = target: Matrix metalloproteinase-14 (Homo sapiens, UniProt P50281); assay: Dose Response confirmation of uHTS hits for a small molecule inhibitors of MT1-MMP activation in a fluorescence assay set 1.; assay type: functional
Kallikrein-7 = Kallikrein-7 (Homo sapiens, UniProt P49862); assay: Fluorescence Intensity-based biochemical primary high throughput dose response assay to identify activators of kallikrein-7 (K7) zymogen.
[24] = CEM21 lymphoblast cell cytotoxicity, dose response, cytotoxicity control for viral fusion inhibitor project, CellTiter-Glo luminescence, cherry-picked (AID 652042); assay type: functional, cell-based;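 further: potency for signal decrease meaning cytotoxicity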
[25] = ZM109 Env clade C HIV-1 fusion inhibitors, dose response, HeLa effector, CEM target cells, luciferase, cherry-pick (AID 652058); assay type: functional, cell-based
[26] = Luminescence-based cell-based high throughput dose response assay to identify activators of the DAF-12 from the parasite S. stercoralis (ssDAF-12).; assay type: functional
Beta-galactosidase = Beta-galactosidase (Escherichia coli, UniProt Q8VNN2); assay: Dose response counterscreen for EBI2 assay utilizing the enzyme, b-galactosidase.; assay type: functional
[27] = NIH-3T3 fibroblast cytotoxicity, dose response, cytotoxicity control, cell-based, fluorescence, Alamar Blue, secondary assay (AID 2327); assay type: functional;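 further: NIH-3T3 mouse fibroblasts cultured with fluconazole at 8 µg/mL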
[28] = target: T2, Methionyl-tRNA synthetase, putative (Trypanosoma brucei brucei, UniProt Q38C91); assay type: functional, Trypanosoma brucei brucei strain 927/4 GUTat10.1
T2 sequence (Q38C91 whole entry): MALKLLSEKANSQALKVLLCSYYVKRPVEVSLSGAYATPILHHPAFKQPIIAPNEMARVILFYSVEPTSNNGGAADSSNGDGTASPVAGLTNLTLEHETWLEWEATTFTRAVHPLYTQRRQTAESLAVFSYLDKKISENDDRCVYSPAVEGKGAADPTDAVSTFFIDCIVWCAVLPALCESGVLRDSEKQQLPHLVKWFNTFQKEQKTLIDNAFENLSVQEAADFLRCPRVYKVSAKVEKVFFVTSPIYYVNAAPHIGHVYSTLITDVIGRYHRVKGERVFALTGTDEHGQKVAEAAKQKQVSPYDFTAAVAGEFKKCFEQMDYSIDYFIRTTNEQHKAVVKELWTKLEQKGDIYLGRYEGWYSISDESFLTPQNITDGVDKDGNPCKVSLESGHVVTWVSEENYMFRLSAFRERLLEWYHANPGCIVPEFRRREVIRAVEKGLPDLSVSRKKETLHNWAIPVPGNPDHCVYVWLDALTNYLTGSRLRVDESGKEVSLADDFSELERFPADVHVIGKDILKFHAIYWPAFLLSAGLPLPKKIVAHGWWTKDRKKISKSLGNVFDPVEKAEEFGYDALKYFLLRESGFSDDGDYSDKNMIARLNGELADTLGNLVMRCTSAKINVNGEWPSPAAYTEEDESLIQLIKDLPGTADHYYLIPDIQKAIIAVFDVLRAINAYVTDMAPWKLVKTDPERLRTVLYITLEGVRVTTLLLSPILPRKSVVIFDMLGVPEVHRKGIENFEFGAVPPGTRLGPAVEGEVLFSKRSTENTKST

[29] = C. albicans growth with fluconazole, confirmation, fluorescence, retest (AID 2467); assay type: functional, cell-based
[30] = Counterscreen for inhibitors of Trypanosoma brucei methionyl tRNA synthetase (MetRS): Luminescence-based cell-based high throughput dose response assay to identify compounds that are cytotoxic to Jurkat human T lymphocyte cells.; assay type: functional
[31] = target: T2, Methionyl-tRNA synthetase, putative; assay type: functional, Trypanosoma brucei brucei strain 927/4 GUTat10.1; remark: listed apart in the source

In the case of `COc1ccc2c3c(n(C)c2c1)[C@H](CO)NCC31CCN(Cc2cc(-c3ccccc3)on2)CC1`, the AC50 [1] is reported as 7.77 µM (active), the AC50 [2] is reported as 43 µM (active) and the AC50 [3] is reported as 24.1 µM (active). For the same compound, the AC50 (Paired box protein Pax-8) was 7.96 µM (active), the AC50 [4] was 1.64 µM (active) and the AC50 [5] was 12.9 µM (active). The AC50 [6] was 25.1 µM (active).

For `Cc1ccc(Sc2c(O)c3ccccc3n(C)c2=O)cc1`, the IC50 (cells [7]) was > 138 µM (inactive), the EC50 [8] was > 79.4 µM (not active) and the IC50 (Major prion protein) was 7.12 µM (active). The EC50 [9] was > 79.4 µM (inactive) and the EC50 [10] was > 79.4 µM (not active).

In the case of `Cc1oc(-c2ccc(Cl)cc2)nc1CSCC(=O)NC1CCN(Cc2ccccc2)CC1`, the EC50 (cells [11]) is reported as > 29.9 µM (inactive), the EC50 (HEK293 [12]) is reported as 2.62 µM (active) and the IC50 (Galanin receptor type 3) is reported as 1.29 µM (active). The IC50 (HEK293 [13]) was 1.68 µM (active), the IC50 (HEK293 [14]) was 9.78 µM (active) and the IC50 (HEK293 [15]) was 3.08 µM (active).

With `c1ccc(Nc2nnc(-c3ccc4c(c3)OCO4)o2)cc1` the IC50 (cells [16]) was > 67.5 µM (inactive), the AC50 [17] was 12.3 µM (active) and the AC50 [18] was 2.58 µM (active). The AC50 [19] was 10.8 µM (active), the IC50 [20] was > 0.0926 µM (active) and the AC50 [21] was 2.76 µM (active). The AC50 [22] was 6.3 µM (active).

With `COc1cccc2c1C(=O)O/C2=C/c1ccc2c(c1)OCO2` the AC50 [17] was > 52 µM (inactive), the AC50 [18] was 2.1 µM (active) and the AC50 [19] was > 52 µM (inactive). The AC50 [21] was 2.69 µM (active) and the AC50 [22] was > 52 µM (inactive).

For `CN1C(=O)/C(=C2/C=Cc3ccccc3N2CCCS(=O)(=O)O)SC1=S`, the IC50 [23] was > 80 µM (inactive).

For `N#Cc1ccc2c(c1)nc1ccccn12`, the EC50 (Kallikrein-7) was > 69.6 µM (inactive).

With `CC1(C)N=C(N)N=C(N)N1CCCCc1ccccc1` the AC50 [24] was 1.63 µM (active) and the AC50 [25] was 1.34 µM (active).

For `COc1ccc(/C=C(/CC(=O)NCc2ccc(Cl)cc2)c2nc3ccccc3s2)cc1`, the EC50 (Kallikrein-7) was 2.56 µM (active).

For `COc1ccc(-c2cn3ccccc3n2)cc1OC`, the IC50 [26] was > 67.5 µM (inactive).

For `Cc1ccc(/C=C/C(=O)N2CCCN(C(=O)/C=C/c3ccc(C)cc3)CC2)cc1`, the IC50 (Beta-galactosidase) was > 80 µM (inactive).

With `Cc1ccc(SCCC(=O)N/N=C/c2ccccc2O)cc1` the EC50 [27] was > 160 µM (inactive), the IC50 [28] was 4.49 µM (active) and the EC50 [29] was 4.74 µM (active). The IC50 [30] was 16.1 µM (inactive) and the IC50 [31] was 4.39 µM (active).
